In patent US20240002391A1, “4-ALKOXYPYRROLO[2,1-F][1,2,4]TRIAZINES AND PREPARATION AND USES THEREOF” (BioSplice Therapeutics, Inc., priority 2022, published 2024):

The molecules below were run against recombinant DYRK1A kinase (Homo sapiens (Human), UniProt Q13627) (assay: DYRK1A kinase assay (Ser/Thr 18 peptide Z-lyte FRET)). Conditions: DYRK1A kinase activity, Z-lyte Ser/Thr 18 peptide, 15 μM ATP; method text calls the value IC50; read-out: EC50 (the source's name).
Assay type: biochemical
Protocol: Representative compounds were screened using the assay procedure for DYRK1A kinase activity as described below.
Each compound was dissolved in DMSO as a 10 mM stock and used to prepare compound source plates. Serial dilution (1:3, 11-point dose-response curves from 10 μM to 0.00016 μM) and compound transfer was performed using the ECHO 550 (Labcyte, Sunnyvale, CA) into 1536-well black-walled round bottom plates (Coming).
The DYRK1A kinase assay was run using the Ser/Thr 18 peptide Z-lyte assay kit according to manufacturer's instructions (Life Technologies-a Division of Thermo-Fisher). This is a non-radioactive assay using fluorescence resonance energy transfer (FRET) between coumarin and fluorescein to detect kinase activity which is represented as a ratio of coumarin emission/fluorescein emission.
Briefly, recombinant DYRK1A kinase, ATP and Ser/Thr peptide 18 were prepared in 1X Kinase buffer to final concentrations of 0.25 μg/mL, 15 μM, and 4 μM respectively. The mixture was allowed to incubate with the representative compounds for one hour at room temperature. All reactions were performed in duplicate. Unphosphorylated (“0% Control”) and phosphorylated (“100% control”) forms of Ser/Thr 18 served as control reactions. Additionally, an 11-point dose-response curve of Staurosporine (luM top) was run to serve as a positive compound control.
After incubation, Development Reagent A was diluted in Development Buffer then added to the reaction and allowed to further incubate for one hour at room temperature. The plate was read at Ex 400 Em 455 to detect the coumarin signal and Ex 400 Em 520 to measure the signal (EnVision Multilabel Plate Reader, PerkinElmer).
The Emission ratio (Em) was calculated as a ratio of the coumarin (C) emission signal (at 445 nm)/Fluorescein (F) emission signal (at 520 nm). The percent phosphorylation was then calculated using the following formula: [1−((Em ratio X F100%)-C100%)/((C0%-C100%) +(Em ratio X (F100%−F0%)))]. Dose-response curves were generated, and inhibitory concentration (IC50) values were calculated using non-linear regression curve fit in the Dotmatics' Studies Software (Bishops Stortford, UK).
For COc1nc(NC2CCN(C3COC3)CC2)nn2ccc(-c3ccc4nccn4c3)c12 [Compound 62, 5-(Imidazo[1,2-a]pyridin-6-yl)-4-methoxy-N-(1-(oxetan-3-yl)piperidin-4-yl)pyrrolo[2,1-f][1,2,4]triazin-2-amine], the IC50 was 8.5 nM.
With CCN1CC[C@@H](Nc2nc(OC)c3c(-c4ccc5nnn(CC(F)F)c5c4)ccn3n2)C(F)(F)C1 [Compound 780, (R)-5-(1-(2,2-Difluoroethyl)-1H-benzo[d][1,2,3]triazol-6-yl)-N-(1-ethyl-3,3-difluoropiperidin-4-yl)-4-methoxypyrrolo[2,1-f][1,2,4]triazin-2-amine] the IC50 was 1.9 nM.
COc1nc(N[C@@H]2CCN(C)CC2(F)F)nn2ccc(-c3ccc4ncnn4c3)c12 [Compound 576, (R)-5-([1,2,4]Triazolo[1,5-a]pyridin-6-yl)-N-(3,3-difluoro-1-methylpiperidin-4-yl)-4-methoxypyrrolo[2,1-f][1,2,4]triazin-2-amine] was tested, and the IC50 was 7.3 nM.
Molecule COc1nc(NC2CCC3(CC2)COC3)nn2ccc(-c3ccc4nnn(CC(F)F)c4c3)c12 [Compound 801, 5-(1-(2,2-Difluoroethyl)-1H-benzo[d][1,2,3]triazol-6-yl)-4-methoxy-N-(2-oxaspiro[3.5]nonan-7-yl)pyrrolo[2,1-f][1,2,4]triazin-2-amine] has an IC50 of 3.2 nM.
COc1nc(NC2CC3(C2)CN(C(C)=O)C3)nn2ccc(-c3ccn4nccc4c3)c12 [Compound 37, 1-(6-((4-Methoxy-5-(pyrazolo[1,5-a]pyridin-5-yl)pyrrolo[2,1-f][1,2,4]triazin-2-yl)amino)-2-azaspiro[3.3]heptan-2-yl)ethan-1-one] showed an IC50 of 2.5 nM.
CNC(=O)c1cnn2ccc(-c3ccn4nc(N[C@H]5CC[C@@H](OC)CC5)nc(OC)c34)cc12 [Compound 399, 5-(4-Methoxy-2-((cis-4-methoxycyclohexyl)amino)pyrrolo[2,1-f][1,2,4]triazin-5-yl)-N-methylpyrazolo[1,5-a]pyridine-3-carboxamide] gave an IC50 of 3.5 nM.
CC[C@]1(O)CC[C@@H](Nc2nc(OC)c3c(-c4ccc5nnn(CC(F)F)c5c4)ccn3n2)CC1 [Compound 726, (1s,4s)-4-((5-(1-(2,2-Difluoroethyl)-1H-benzo[d][1,2,3]triazol-6-yl)-4-methoxypyrrolo[2,1-f][1,2,4]triazin-2-yl)amino)-1-ethylcyclohexan-1-ol] was tested, and the IC50 was 1.8 nM.
COc1nc(N[C@H]2C[C@@H]3CN(C(C)=O)C[C@@H]3C2)nn2ccc(-c3ccc4nccnc4c3)c12 [Compound 387, 1-((3aR,5s,6aS)-5-((4-Methoxy-5-(quinoxalin-6-yl)pyrrolo[2,1-f][1,2,4]triazin-2-yl)amino)hexahydrocyclopenta[c]pyrrol-2(1H)-yl)ethan-1-one] was tested, and the IC50 was 0.7 nM.
In the case of COc1nc(N[C@@H]2CCN(C3COC3)CC2(F)F)nn2ccc(-c3cnc4nccn4c3)c12 [Compound 968, (R)—N-(3,3-Difluoro-1-(oxetan-3-yl)piperidin-4-yl)-5-(imidazo[1,2-a]pyrimidin-6-yl)-4-methoxypyrrolo[2,1-f][1,2,4]triazin-2-amine], the IC50 is reported as 2.8 nM.
COc1nc(N[C@H]2C[C@](C)(N)C2)nn2ccc(-c3ccc4ncnn4c3)c12 [Compound 190, trans-N^1-(5-([1,2,4]Triazolo[1,5-a]pyridin-6-yl)-4-methoxypyrrolo[2,1-f][1,2,4]triazin-2-yl)-3-methylcyclobutane-1,3-diamine] was tested, and the IC50 was 11.5 nM.
Work on COc1nc(N[C@H]2CCN(C(C)=O)C[C@H]2F)nn2ccc(-c3cc(F)c4nc(C)n(C(C)C)c4c3)c12 [Compound 544, 1-((3R,4S)-3-Fluoro-4-((5-(4-fluoro-1-isopropyl-2-methyl-1H-benzo[d]imidazol-6-yl)-4-methoxypyrrolo[2,1-f][1,2,4]triazin-2-yl)amino)piperidin-1-yl)ethan-1-one] yielded an IC50 of 0.9 nM.
Work on COc1nc(N[C@H]2CC[C@H](C(C)(C)O)CC2)nn2ccc(-c3cnc4nccn4c3)c12 [Compound 242, 2-(trans-4-((5-(Imidazo[1,2-a]pyrimidin-6-yl)-4-methoxypyrrolo[2,1-f][1,2,4]triazin-2-yl)amino)cyclohexyl)propan-2-ol] yielded an IC50 of 4.4 nM.
With COc1nc(N[C@H]2CC[C@](C)(O)CC2)nn2ccc(-c3ccn4ncnc4c3)c12 [Compound 554, (1r,4r)-4-((5-([1,2,4]Triazolo[1,5-a]pyridin-7-yl)-4-methoxypyrrolo[2,1-f][1,2,4]triazin-2-yl)amino)-1-methylcyclohexan-1-ol] the IC50 was 7.7 nM.
For COc1nc(N[C@H]2C[C@@](C)(C(=O)N(C)C)C2)nn2ccc(-c3ccc4nnn(C)c4c3)c12 [Compound 211, cis-3-((4-Methoxy-5-(1-methyl-1H-benzo[d][1,2,3]triazol-6-yl)pyrrolo[2,1-f][1,2,4]triazin-2-yl)amino)-N,N,1-trimethylcyclobutane-1-carboxamide], the IC50 was 6.6 nM.
Work on COc1nc(N[C@H]2C[C@](C)(O)C2)nn2ccc(-c3ccc4nnn(CC(F)F)c4c3)c12 [Compound 711, (1r,3r)-3-((5-(1-(2,2-Difluoroethyl)-1H-benzo[d][1,2,3]triazol-6-yl)-4-methoxypyrrolo[2,1-f][1,2,4]triazin-2-yl)amino)-1-methylcyclobutan-1-ol] yielded an IC50 of 0.5 nM.
With COc1nc(N[C@H]2C[C@](C)(C(=O)NC3(C)COC3)C2)nn2ccc(-c3ccc4ncccc4c3)c12 [Compound 1042, trans-3-((4-Methoxy-5-(quinolin-6-yl)pyrrolo[2,1-f][1,2,4]triazin-2-yl)amino)-1-methyl-N-(3-methyloxetan-3-yl)cyclobutane-1-carboxamide] the IC50 was 1.2 nM.
In the case of COc1nc(N[C@H](C)C2CCOCC2)nn2ccc(-c3cnc4nccn4c3)c12 [Compound 1147, (R)-5-(Imidazo[1,2-a]pyrimidin-6-yl)-4-methoxy-N-(1-(tetrahydro-2H-pyran-4-yl)ethyl)pyrrolo[2,1-f][1,2,4]triazin-2-amine], the IC50 is reported as 2.7 nM.
For COc1nc(N[C@H]2C[C@](C)(C(=O)N(C)C)C2)nn2ccc(-c3ccc4nc(C)n(CC(F)F)c4c3)c12 [Compound 109, trans-3-((5-(1-(2,2-Difluoroethyl)-2-methyl-1H-benzo[d]imidazol-6-yl)-4-methoxypyrrolo[2,1-f][1,2,4]triazin-2-yl)amino)-N,N,1-trimethylcyclobutane-1-carboxamide], the IC50 was 1 nM.
Molecule COc1nc(N[C@H]2C[C@](C)(NC(=O)OC(C)(C)C)C2)nn2ccc(-c3ccn4nccc4c3)c12 [Compound 98, tert-Butyl (trans-3-((4-methoxy-5-(pyrazolo[1,5-a]pyridin-5-yl)pyrrolo[2,1-f][1,2,4]triazin-2-yl)amino)-1-methylcyclobutyl)carbamate] has an IC50 of 25.6 nM.
With CC[C@]1(O)CC[C@H](Nc2nc(OC)c3c(-c4cc(F)c5nccn5c4)ccn3n2)CC1 [Compound 433, (1r,4r)-1-Ethyl-4-((5-(8-fluoroimidazo[1,2-a]pyridin-6-yl)-4-methoxypyrrolo[2,1-f][1,2,4]triazin-2-yl)amino)cyclohexan-1-ol] the IC50 was 2.6 nM.
For COc1nc(N[C@H]2CC[C@](C)(O)CC2)nn2ccc(-c3ccc4nnn(CC(F)(F)F)c4c3)c12 [Compound 911, (1r,4r)-4-((4-Methoxy-5-(1-(2,2,2-trifluoroethyl)-1H-benzo[d][1,2,3]triazol-6-yl)pyrrolo[2,1-f][1,2,4]triazin-2-yl)amino)-1-methylcyclohexan-1-ol], the IC50 was 2.1 nM.
